Here are results for 46 compounds from the RepoRT retention time repository.

The nature of this series: Waters XBridge BEH C18, 150 × 1 mm, 1.7 µm, 30 °C, 0.04 mL/min, estimated dead time 1.9 min; A: 79.7% water + 20% methanol + 0.3% acetic acid; B: 99.7% methanol + 0.3% acetic acid; gradient (min/%B) 0/0 17/58.7 17.2/100 20.2/100. As to conditions: stereoisomer not certain.

As for `CCOP(=O)(Sc1ccccc1)Sc1ccccc1`, the LC retention time was 16.7 min. Under `CN1C(=O)CCC1c1cccnc1` (stereo unspecified) stands 3.6 min. Under `CC(N)Cc1ccc2c(c1)OCO2` (stereo unspecified) stands 8.1 min; under `CCC(=O)OC(Cc1ccccc1)(c1ccccc1)C(C)CNC` (stereo unspecified), 20.1 min; under `CCC(Cc1ccc2c(c1)OCO2)NC` (stereo unspecified), 10.3 min. Regarding `COC12CCC3(CC1C(C)(O)C(C)(C)C)C1Cc4ccc(O)c5c4C3(CCN1CC1CC1)C2O5` (stereo unspecified), the LC retention time is 17.3 min.

Take `c1ccc(C2(N3CCCCC3)CCCCC2)cc1`: the LC retention time is 14.7 min. Under `Cn1c(=O)[nH]c2ncn(C)c2c1=O` stands 6.1 min. Under `CNC(C)Cc1ccc2c(c1)OCO2` (stereo unspecified) stands 8.3 min; under `CN1CCC23c4c5ccc(O)c4OC2C(=O)CCC3(O)C1C5` (stereo unspecified), 3.6 min. To `CCCc1nn(C)c2c(=O)[nH]c(-c3cc(S(=O)(=O)N4CCN(C)CC4)ccc3OCC)nc12` belongs 18.8 min. Regarding `COc1ccc2c3c1OC1C(O)CCC4C(C2)N(C)CCC341` (stereo unspecified), the LC retention time is 4.6 min. Take `COC(=O)C1C(OC(=O)c2ccccc2)CC2CCC1N2C` (stereo unspecified): the LC retention time is 11.8 min. To `CN1C2CC=C(C(=O)O)C1CC2` (stereo unspecified) belongs 3 min; to `CC(=O)Oc1ccc2c3c1OC1C(OC(C)=O)C=CC4C(C2)N(C)CCC341` (stereo unspecified), 11.4 min; to `CN(C)CCC=C1c2ccccc2CSc2ccccc21`, 19.2 min. Under `CCC(=O)OC(Cc1ccccc1)(c1ccccc1)C(C)CN(C)C` (stereo unspecified) stands 19.6 min. Consider `Cc1ccccc1-n1c(C)nc2ccccc2c1=O`, for which the LC retention time was 20.2 min. Under `CNCC1CCCCC1(O)c1cccc(OC)c1` (stereo unspecified) stands 12.5 min; under `Nc1ccc2c(c1)C(c1ccccc1)=NCC(=O)N2`, 6.2 min. Consider `Oc1ccc2c3c1OC1C(O)C=CC4C(C2)NCCC341` (stereo unspecified), for which the LC retention time is 3.5 min. Take `Cn1c(=O)c2c(ncn2C)n(C)c1=O`: the LC retention time is 9 min. Take `COc1cccc(C2(O)CCCCC2CN(C)C)c1` (stereo unspecified): the LC retention time was 11.4 min. Under `CC(=O)OC1C=CC2C3Cc4ccc(O)c5c4C2(CCN3C)C1O5` (stereo unspecified) stands 6.4 min. To `CCOC(=O)C1C(OC(=O)c2ccccc2)CC2CCC1N2C` (stereo unspecified) belongs 13.9 min. For the compound `COc1ccc2c3c1OC1C(O)C=CC4C(C2)NCCC341` (stereo unspecified), the LC retention time is 5.1 min. Under `CCC(N)Cc1ccc2c(c1)OCO2` (stereo unspecified) stands 10.3 min; under `CN1CCC23c4c5ccc(O)c4OC2C(O)C=CC3C1C5` (stereo unspecified), 3.5 min. Under `CN1CCCC1c1cccnc1` (stereo unspecified) stands 3.3 min; under `CNC(C)C(=O)c1ccccc1` (stereo unspecified), 5.6 min. Under `CCNC(C)Cc1ccc2c(c1)OCO2` (stereo unspecified) stands 9.4 min; under `c1ccc(CN2CCNCC2)cc1`, 4.3 min; under `CC(N)Cc1ccccc1` (stereo unspecified), 7.5 min. As for `COc1ccc(C(CN(C)C)C2(O)CCCCC2)cc1` (stereo unspecified), the LC retention time is 15.4 min. With `CNC(C)Cc1ccccc1` (stereo unspecified), the LC retention time is 7.9 min. Under `COC(=O)C1C2CCC(CC1OC(=O)c1ccccc1)N2` (stereo unspecified) stands 12.8 min; under `CN1C2CCC1C(C(=O)O)C(OC(=O)c1ccccc1)C2` (stereo unspecified), 10.7 min.

On to `COC(=O)C1=CCC2CCC1N2C` (stereo unspecified), for which the LC retention time was 3.6 min. With `COc1ccc2c3c1OC1C(=O)CCC4(O)C(C2)N(C)CCC314` (stereo unspecified), the LC retention time is 5.4 min. As for `COc1ccc2c3c1OC1C(O)C=CC4C(C2)N(C)CCC341` (stereo unspecified), the LC retention time is 4.8 min.

Consider `CNC(C)C(O)c1ccccc1` (stereo unspecified), for which the LC retention time was 5.9 min. To `CCC(=O)C(CC(C)N(C)C)(c1ccccc1)c1ccccc1` (stereo unspecified) belongs 20.2 min; to `CC(N)C(O)c1ccccc1` (stereo unspecified), 5.2 min.

`CCN(CC)C(=O)C1C=C2c3cccc4[nH]cc(c34)CC2N(C)C1` (stereo unspecified): the LC retention time is 13.8 min. On to `COc1cc(CCN)cc(OC)c1OC`, for which the LC retention time was 7 min. As to `O=C1CN=C(c2ccccc2)c2cc([N+](=O)[O-])ccc2N1`, the LC retention time was 19.8 min.
